Measurements: US8084254B2, “Human blood brain barrier model” (Institut National de la Sante et de la Recherche Medicale …, priority 2004, dated 2011)

Tests used:
[1] = brain perfusion of adult rats; reported values (Cisternino et al.); cited from earlier work
P-gp = P-gp (Homo sapiens, UniProt P08183); assay: Drug accumulation in hCMEC/D3 cells with P-gp inhibitor; conditions: PSC-833 10 μM
Procedure: The plates were shaken during both preincubation and incubation periods to reduce the effect of the aqueous boundary layer on drug accumulation. The cells were rapidly washed three times with ice-cold PBS to eliminate the extracellular drug, and then lyed in 100 μl 0.1 M NaOH or 1% Triton-X100.

hCMEC/D3 monolayers = assay: Transendothelial electrical resistance (TEER) of hCMEC/D3 monolayers; type: cell-based, human; conditions: treatment of hCMEC/D3 monolayers
Procedure: Transendothelial electrical resistance (TEER) of hCMEC/D3 monolayers on Transwell-Clear™ filters was measured using an Endohm 12 chamber and an Endohmeter (World Precision Instruments Inc., Sarasota, Fla., USA). The baseline resistance of ECM-coated inserts was always subtracted from the resistance obtained in the presence of the endothelial cultures. Primary cultures of rat brain endothelial cells were used as control.

hCMEC/D3 cells = test system: hCMEC/D3 cells
Procedure: HCMEC/D3 cells were seeded on the filters at a density of 2×10^5 cells/cm^2 in normal culture medium (EGM-2). […] All plates were kept at 37° C. […] PS (clearance) is the permeability surface area product and s is the surface area of the filter (1 cm^2).

Sequence of P-gp (P08183 whole entry): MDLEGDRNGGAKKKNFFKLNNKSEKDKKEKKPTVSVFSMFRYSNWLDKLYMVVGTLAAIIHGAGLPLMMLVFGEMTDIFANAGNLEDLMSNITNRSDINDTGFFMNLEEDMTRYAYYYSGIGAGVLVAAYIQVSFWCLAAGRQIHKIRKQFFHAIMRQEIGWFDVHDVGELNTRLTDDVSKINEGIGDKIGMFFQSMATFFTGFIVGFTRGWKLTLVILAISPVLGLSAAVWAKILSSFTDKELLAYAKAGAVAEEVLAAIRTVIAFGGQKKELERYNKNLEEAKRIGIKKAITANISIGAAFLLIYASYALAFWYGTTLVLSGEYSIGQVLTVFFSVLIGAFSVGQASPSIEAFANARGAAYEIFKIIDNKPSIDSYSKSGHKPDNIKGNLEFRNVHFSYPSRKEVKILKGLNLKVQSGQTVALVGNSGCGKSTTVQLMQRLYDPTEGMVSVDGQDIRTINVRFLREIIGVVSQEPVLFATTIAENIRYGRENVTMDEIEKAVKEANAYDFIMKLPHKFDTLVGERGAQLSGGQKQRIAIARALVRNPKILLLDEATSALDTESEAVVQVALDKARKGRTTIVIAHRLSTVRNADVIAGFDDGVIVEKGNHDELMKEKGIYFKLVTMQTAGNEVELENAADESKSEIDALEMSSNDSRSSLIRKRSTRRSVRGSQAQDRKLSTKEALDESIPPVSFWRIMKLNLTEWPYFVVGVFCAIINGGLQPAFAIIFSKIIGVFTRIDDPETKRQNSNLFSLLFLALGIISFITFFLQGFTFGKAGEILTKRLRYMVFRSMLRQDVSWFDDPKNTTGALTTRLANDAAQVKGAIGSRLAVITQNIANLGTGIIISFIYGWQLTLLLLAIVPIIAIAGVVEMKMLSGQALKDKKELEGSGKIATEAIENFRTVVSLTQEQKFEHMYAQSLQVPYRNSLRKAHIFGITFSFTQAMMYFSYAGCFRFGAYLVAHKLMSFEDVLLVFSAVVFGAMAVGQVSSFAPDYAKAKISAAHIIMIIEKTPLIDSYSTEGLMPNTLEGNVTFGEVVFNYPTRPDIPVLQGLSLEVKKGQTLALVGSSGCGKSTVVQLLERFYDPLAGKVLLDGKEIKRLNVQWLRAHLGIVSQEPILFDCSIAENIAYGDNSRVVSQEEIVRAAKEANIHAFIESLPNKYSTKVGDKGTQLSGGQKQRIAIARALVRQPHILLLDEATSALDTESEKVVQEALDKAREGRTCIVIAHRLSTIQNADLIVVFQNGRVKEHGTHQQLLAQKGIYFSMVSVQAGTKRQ

Compound: COc1cc2c(c(OC)c1OC)-c1ccc(OC)c(=O)cc1[C@@H](NC(C)=O)CC2 [Colchicine]
- In vivo Kin [1]: 0.28 µL/s/g

Compound: CN1C(=O)CN=C(c2ccccc2)c2cc(Cl)ccc21 [Diazepam]
- In vivo Kin [1]: 45 µL/s/g

Compound: CN1CC[C@]23c4c5ccc(O)c4O[C@H]2[C@@H](O[C@@H]2O[C@H](C(=O)O)[C@@H](O)[C@H](O)[C@H]2O)C=C[C@H]3[C@H]1C5 [M6G, morphine-6-glucuronide]
- In vivo Kin [1]: 0.03 µL/s/g

Compound: C/C=C/C[C@@H](C)C(=O)[C@H]1C(=O)N[C@@H](C(C)C)C(=O)N(C)CC(=O)N(C)[C@@H](CC(C)C)C(=O)N[C@@H](C(C)C)C(=O)N(C)[C@@H](CC(C)C)C(=O)N[C@@H](C)C(=O)N[C@H](C)C(=O)N(C)[C@@H](CC(C)C)C(=O)N(C)[C@@H](CC(C)C)C(=O)N(C)[C@@H](C(C)C)C(=O)N1C [PSC-833]
- [3H] daunorubicin uptake by hCMEC/D3 cells (P-gp): markedly increased
- calcein-AM uptake by hCMEC/D3 cells (P-gp; calcein-AM 10 μM): markedly increased
- rhodamine 123 uptake by hCMEC/D3 cells (P-gp; rhodamine 123 10 μM): markedly increased

Compound: COc1cc2nc(N3CCN(C(=O)c4ccco4)CC3)nc(N)c2cc1OC [Prazosin]
- In vivo Kin [1]: 0.96 µL/s/g

Compound: CC[C@]1(O)C[C@H]2CN(CCc3c([nH]c4ccccc34)[C@@](C(=O)OC)(c3cc4c(cc3OC)N(C=O)[C@H]3[C@@](O)(C(=O)OC)[C@H](OC(C)=O)[C@]5(CC)C=CCN6CC[C@]43[C@@H]65)C2)C1 [Vincristine]
- In vivo Kin [1]: 0.06 µL/s/g

Compound: Nc1ncnc2c1nc(Sc1ccc(Cl)cc1)n2[C@@H]1O[C@@H]2COP(=O)(O)O[C@H]2[C@H]1O [chlorophenylthio-cAMP]
- Effect on TEER value (hCMEC/D3 monolayers): failed to significantly increase

Compound: Lucifer Yellow
- Permeability of Lucifer Yellow across hCMEC/D3 (hCMEC/D3 cells): 0.53±0.10 10^−3 cm/min
